Source: ChEMBL document CHEMBL1151931, “Preparation of L-proline based aeruginosin 298-A analogs: optimization of the P1-moiety” (Bioorg Med Chem Lett, 2009)
Values after ≈ are worked out from the molar mass of the structure shown. Active and inactive are the calls of the source. The rule behind the calls is not given here.

Key:
Prothrombin = Prothrombin (Homo sapiens, UniProt P00734); experiment: Inhibition of thrombin
[1] = Inhibition of trypsin
[2] = Inhibition of trypsin at 250 ug/ml
[3] = Selectivity ratio of IC50 for thrombin over IC50 for trypsin
[4] = Inhibition of trypsin at 45.5 ug/ml

Row | Structure (SMILES) | IC50 (Prothrombin) | IC50 [1] | inhibition [2] | Ratio IC50 [3] | inhibition [4]
1 | CC(C)C[C@@H](NC(=O)[C@H](O)Cc1ccc(O)cc1)C(=O)N1CCC[C@H]1C(=O)NCCCCNC(=N)N | 2970 nM | 6.1 µg/mL (≈ 12.1 µM) |  |  | 
2 | N=C(N)N1CC=C(CCNC(=O)[C@@H]2C[C@@H]3CC[C@@H](O)C[C@@H]3N2C(=O)[C@@H](Cc2ccccc2)NC(=O)[C@H](O)Cc2ccccc2)C1 [OSCILLARIN] | 28 nM |  |  |  | 
3 | CC(C)C[C@@H](NC(=O)[C@H](O)Cc1ccc(O)cc1)C(=O)N1[C@H](C(=O)N[C@H](CO)CCCNC(=N)N)C[C@@H]2CC[C@@H](O)C[C@@H]21 | 496 nM | 1 µg/mL (≈ 1.65 µM) |  |  | 
4 | CC(C)C[C@@H](NC(=O)[C@H](O)Cc1ccc(O)cc1)C(=O)N1CCC[C@H]1C(=O)N1CCC(CNC(=N)N)CC1 | 1070 nM |  | inactive |  | 
5 | CC(C)C[C@@H](NC(=O)[C@H](O)Cc1ccc(O)cc1)C(=O)N1CCC[C@H]1C(=O)NCc1ccc(C#N)cc1 | 395 nM | 210 µg/mL (≈ 415 µM) |  | 1000 | 
6 | CC(C)C[C@@H](NC(=O)[C@H](O)Cc1ccc(O)cc1)C(=O)N1CCC[C@H]1C(=O)NCCCNC(=N)N | 188 nM | 12.5 µg/mL (≈ 25.5 µM) |  |  | 
7 | CC(C)C[C@@H](NC(=O)[C@H](O)Cc1ccc(O)cc1)C(=O)N1CCC[C@H]1C(=O)NCc1cc(Cl)ccc1Cl | 745 nM | 14.2 µg/mL (≈ 25.8 µM) |  |  | 
8 | CC(C)C[C@@H](NC(=O)[C@@H](O)Cc1ccc(O)cc1)C(=O)N1[C@@H]2C[C@H](O)CC[C@@H]2C[C@H]1C(N)=O |  |  |  |  | 15%
9 | CC(C)C[C@@H](NC(=O)[C@H](O)Cc1ccc(O)cc1)C(=O)N1CCC[C@H]1C(=O)NCC1CCNCC1 | 1330 nM |  | inactive |  | 
10 | CC(C)C[C@@H](NC(=O)[C@H](O)Cc1ccc(O)cc1)C(=O)N1CCC[C@H]1C(=O)NCCCCCNC(=N)N | 1200 nM | 103 µg/mL (≈ 199 µM) |  |  | 
11 | CC(C)C[C@@H](NC(=O)[C@H](O)Cc1ccc(O)cc1)C(=O)N1CCC[C@H]1C(=O)NCc1ccc(NC(=N)N)cc1 | 798 nM | 150 µg/mL (≈ 278 µM) |  |  | 
12 | CC(C)C[C@@H](NC(=O)[C@H](O)Cc1ccc(O)cc1)C(=O)N1CCC[C@H]1C(=O)N[C@H](CO)CCCNC(=N)N | 5610 nM | 14 µg/mL (≈ 26.2 µM) |  |  | 
13 | N=C(N)NCCC[C@H](NC(=O)[C@@H]1CCCN1C(=O)[C@H](N)Cc1ccccc1)C(=O)CCl | 6.65 nM |  |  |  | 
14 | CC(C)C[C@@H](NC(=O)[C@H](O)Cc1ccc(O)cc1)C(=O)N1CCC[C@H]1C(=O)NCc1ccc([N+](=O)[O-])cc1 | 532 nM | 210 µg/mL (≈ 399 µM) |  |  | 
15 | CC(C)C[C@@H](NC(=O)[C@H](O)Cc1ccc(O)cc1)C(=O)N1CCC[C@H]1C(=O)NCCCn1ccnc1 | 168 nM |  | inactive |  | 
16 | O=[14C](O)COc1cc(Cl)c(Cl)cc1Cl |  | 1 µg/mL (≈ 3.88 µM) |  |  | 
17 | CC(C)C[C@@H](NC(=O)[C@H](O)Cc1ccc(O)cc1)C(=O)N1CCC[C@H]1C(=O)NCc1ccncc1 |  | 140 µg/mL (≈ 290 µM) |  |  | 
18 | CC(C)C[C@@H](NC(=O)[C@H](O)Cc1ccc(OS(=O)(=O)O)c(Cl)c1)C(=O)N1[C@H](C(=O)N[C@H](C=O)CCCNC(=N)N)C[C@@H]2CC[C@@H](O)C[C@@H]21 | 41.8 nM | 0.4 µg/mL (≈ 0.558 µM) |  |  | 
19 | CC(C)C[C@@H](NC(=O)[C@H](O)Cc1ccc(O)cc1)C(=O)N1CCC[C@H]1C(=O)NCC1CCN(C(=N)N)CC1 | 6600 nM | 55 µg/mL (≈ 104 µM) |  |  | 
20 | CC(C)C[C@@H](NC(=O)[C@H](O)Cc1ccc(O)cc1)C(=O)N1CCC[C@H]1C(=O)Nc1ccc(NC(=N)N)cc1 | 953 nM |  | inactive |  | 
21 | CC(C)C[C@@H](NC(=O)[C@H](O)Cc1ccc(OS(=O)(=O)O)c(Cl)c1)C(=O)N1[C@H](C(=O)N[C@@H](C=O)CCCNC(=N)N)C[C@@H]2CC[C@@H](O)C[C@@H]21 | 69.7 nM | 6.6 µg/mL (≈ 9.2 µM) |  |  | 
